Experimental findings from US11465978B2, “Anthranilic amides and the use thereof” (THE ADMINISTRATORS OF THE TULANE EDUCATIONAL FUND, priority 2013, dated 2022) are described below.

The test system of one data set is pERK5. Briefly: Western blot, inhibition of EGF-mediated formation of pERK5 in MDA-MB-231 cells. The data set is classed as cell-based. The method, then:
(§1) FIG. 9 is a set of bar graphs showing a Western blot analysis of potential MEK5 inhibitors. The MDA-MB-231 triple negative breast cancer cell line was pretreated with compounds (10 μM) for 30 minutes followed by stimulation with epidermal growth factor (EGF, 50 ng/mL) for 15 minutes. Vehicle-treated cells were pretreated with DMSO for 30 minutes prior to EGF stimulation for 15 minutes. Protein visualization and quantification analysis were performed using LI-COR Odyssey Imager. * P<0.05 vs. Vehicle, one-way ANOVA followed by Tukey-Kramer test (n=3).
(§2) A number of compounds were tested for their potential as MEK5 inhibitors. The MDA-MB-231 triple negative breast cancer cell line was pretreated with 10 μM of compounds 24, 9b, 9a, 9c, 9e, 9f, 9d, 9h, 23, 7, and 15 for 30 minutes followed by stimulation with epidermal growth factor (EGF, 50 ng/mL) for 15 minutes. Vehicle-treated cells and known MEK1/2 inhibitor cells were pretreated with DMSO and U0126 respectively for 30 minutes prior to EGF stimulation for 15 minutes. Protein visualization and quantification analysis was performed using LI-COR Odyssey Imager. The results of the Western blot analysis are shown in FIG. 9. * P<0.05 vs. Vehicle, one-way ANOVA followed by Tukey-Kramer test (n=3).
(§3) MDA-MB-231 cells were grown on 10 cm cell culture plates [Sarstedt] in Dulbecco's Modified Eagle's Medium (DMEM; Gibco) with Ham's F12 Nutrient Mixture (1:1) (Invitrogen), 10% heat-inactivated FBS [Atlanta Biological and 0.5% penicillin/streptomycin [Gibco]. Cells were maintained at 37° C. with 5% CO2. Plating of the cells was done 36 hours before treatment in 35 mm culture plates [Sarstedt] and allowed to reach confluence. To test MEK-5 inhibitors, the cells were treated with epidermal growth factor (EGF; Sigma-Aldrich) 30 min after treatment with the compounds. 15 min after the addition of EGF, the cells were washed with 1×PBS [Sigma-Aldrich] and then lysed in 1% Triton X-100 buffer containing 20 mM Tris (pH 6.8), 137 mM NaCl, 25 mM beta glycerophosphate, 2 mM NaPPi, 2 mM EDTA, 1 mM Na3VO4, 10% glycerol, 5 μg/mL leupeptin, 5 μg/mL aprotinin, 2 mM benzamidine, 0.5 mM DTT, and 1 mM PMSF. The lysates were then centrifuged at 10,000 rpm for 10 min at 4° C.
(§4) Total protein content was assessed by Bradford Bio-Rad protein assay (Cat. No. 500-0006, Bio-Rad, Hercules, Calif.) and 30 μg of protein was loaded on a 8% SDS-PAGE gel for phosphorylated and total ERK1/2 and ERK5 proteins. After running the samples, gels were transferred to a nitrocellulose membrane (Cat. No. 926-31092, Licor Biosciences, Lincoln, Nebr.). After transfer, membranes were washed for 5 min with 1×PBS and blocked for 1 h in a Casein Blocking Buffer (Cat. No. 927-40200, Licor Biosciences) at room temperature. Membranes were then incubated overnight at 4° C. in primary antibody in CBB with 0.2% Tween-20. Antibodies included rabbit anti-phospho-ERK1/2 (Dilution—1:1000, Cat. No. 9101, Cell Signaling, Beverly, Mass.), mouse anti-total ERK1/2 (Dilution—1:1000, Cat. No. 9107, Cell Signaling), and rabbit anti-total ERK5 (Dilution—1:1,000, Cat. No. 3372, Cell Signaling). Mouse anti-α-Tubulin (Dilution—1:10,000, Cat. No. T5168, Sigma-Aldrich) was used as a loading control. After incubation with primary antibody, blots were washed in 1×PBS solution with 0.2% Tween-20 (1×PBS-T) and incubated with goat anti-rabbit (Dilution—1:10,000, Cat. No. 926-68021, LICOR Biosciences) and goat anti-mouse (Dilution—1:10,000, Cat. No. 926-32210, LICOR Biosciences) secondary antibodies for 1 h at room temperature. After washing the membranes with 1×PBS-T, the protein bands were visualized on an Odyssey Infrared Imager and quantified with Odyssey software (LICOR Biosciences).

Another data set concerns pERK1/2. Briefly: Western blot, inhibition of EGF-mediated formation of pERK1/2 in MDA-MB-231 cells. The data set is classed as cell-based. The method, then: as §1, §2, §3, §4
Where [1] appears, read: Example 3 table, DMSO = 0, MDA-MB-231, EGF stimulation.

Molecules are shown by their SMILES.

The compound `NC(=O)c1ccc(F)c(F)c1Nc1ccccc1F` [SC-2-37, 3,4-difluoro-2-((2-fluorophenyl)amino)benzamide] gave a melting point of 157.6 to 161.2 °C. Further, the “pERK-5 decrease (%)” value in the data set on pERK5 (setting [1]) is 56.1%. Besides, in the data set with pERK1/2 (setting [1]), the “pERK-½ decrease (%)” value was 52.8%.
Consider `O=C(c1ccc(F)c(F)c1Nc1ccc(I)cc1F)N1CCCCC1` [IC-3-97], for which the inhibition at 10 µM amounted to 87.1% with pERK5 (Homo sapiens, MDA-MB-231, Table 1, MDA-MB-231, compounds 10 μM 30 min, then EGF 50 ng/mL 15 min, read-out: cellular pERK5 decrease (%)) and 42.4% with pERK1/2 (Homo sapiens, MDA-MB-231, Table 1, MDA-MB-231, compounds 10 μM 30 min, then EGF 50 ng/mL 15 min, read-out: cellular pERK1/2 decrease (%)).
